The values below come from ChEMBL document CHEMBL1148555, “Macrocyclic peptidomimetic inhibitors of beta-secretase (BACE): first X-ray structure of a macrocyclic peptidomimetic-BACE complex” (Bioorg Med Chem Lett, 2006).

Bounds are passed on as bounds.

What is called IC50 is the concentration needed to halve the response being measured.

A short description of experiment [1]: Inhibition of Abeta peptide production in HEK293 cells overexpressing APP751swe. Format: functional, cell-based. The settings on record: Homo sapiens.
The target of experiment [2] is Beta-secretase 1 (Homo sapiens, UniProt P56817). The experiment can be described thus: Inhibition of recombinant human BACE1 in FRET assay.
Sequence of Beta-secretase 1 (P56817 whole entry): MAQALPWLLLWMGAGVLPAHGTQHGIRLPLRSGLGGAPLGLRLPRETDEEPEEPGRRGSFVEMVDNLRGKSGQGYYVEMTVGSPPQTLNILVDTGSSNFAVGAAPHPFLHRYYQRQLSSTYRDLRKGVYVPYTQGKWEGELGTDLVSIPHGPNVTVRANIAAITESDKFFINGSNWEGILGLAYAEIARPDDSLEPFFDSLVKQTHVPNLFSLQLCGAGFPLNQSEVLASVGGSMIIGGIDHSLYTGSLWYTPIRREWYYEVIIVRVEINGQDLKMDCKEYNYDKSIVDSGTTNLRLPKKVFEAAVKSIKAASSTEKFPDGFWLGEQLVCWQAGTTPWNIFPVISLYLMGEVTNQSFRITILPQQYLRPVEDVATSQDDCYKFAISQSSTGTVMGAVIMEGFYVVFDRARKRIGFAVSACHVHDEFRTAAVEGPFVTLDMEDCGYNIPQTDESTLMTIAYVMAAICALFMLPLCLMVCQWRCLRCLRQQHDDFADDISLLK

As for `CC(C)[C@H](NC(=O)CC[C@H](O)[C@@H]1CCCCCC[C@H](NC(=O)OC(C)(C)C)C(=O)N[C@@H](C)C(=O)N1)C(=O)NCc1ccccc1`, the IC50 in experiment [1] was more than 100 µM; in experiment [2], 9.7 µM. Turning to `CC(C)[C@H](NC(=O)OC(C)(C)C)C(=O)N[C@@H](C)C(=O)N[C@@H](Cc1ccccc1)[C@@H](O)C[C@@H](C)C(=O)N[C@H](C(=O)NCc1ccncc1)C(C)C`, the IC50 in experiment [1] worked out at 2.83 µM.
